{"source": "patent US20240076699A1", "about": "“BIOSYNTHESIS OF SUBSTITUTED COMPOUNDS AND CANNABINOIDS” (Invizyne Technologies, Inc., priority 2022, published 2024)", "key": {"[1]": {"conditions": "results in an inactive metabolite; cited from earlier work"}, "[2]": {"biological_target": "Bovine serum albumin (BSA) (Bos taurus, UniProt P02769)", "sequence (P02769 25-607)": "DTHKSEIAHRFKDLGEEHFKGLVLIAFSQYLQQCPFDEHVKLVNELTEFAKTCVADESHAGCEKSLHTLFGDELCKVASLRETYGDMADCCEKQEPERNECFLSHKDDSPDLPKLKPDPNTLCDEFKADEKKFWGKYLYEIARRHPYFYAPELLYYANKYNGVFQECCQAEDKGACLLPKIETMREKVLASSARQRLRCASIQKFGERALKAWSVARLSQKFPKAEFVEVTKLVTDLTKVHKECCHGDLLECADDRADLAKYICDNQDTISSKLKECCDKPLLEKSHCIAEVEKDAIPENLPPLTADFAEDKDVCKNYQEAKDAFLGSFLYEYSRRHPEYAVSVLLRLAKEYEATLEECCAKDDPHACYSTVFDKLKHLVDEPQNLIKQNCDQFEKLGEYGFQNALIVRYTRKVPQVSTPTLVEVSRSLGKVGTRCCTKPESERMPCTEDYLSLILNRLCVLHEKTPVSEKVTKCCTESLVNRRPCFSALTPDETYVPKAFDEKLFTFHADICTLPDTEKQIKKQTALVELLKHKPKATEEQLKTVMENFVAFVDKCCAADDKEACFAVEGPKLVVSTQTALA", "experiment": "BSA binding seen during extraction", "conditions": "reaction mixture extraction", "from_the_text": "In one embodiment, upon formation of the THCA compound of the present invention, the compound is purified to isolate the produced THCA. The extraction of CBGA and THCA into ethylacetate formed an emulsion which could only be partially broken with the addition of hexane. Bovine serum albumin (BSA) binds both CBGA and THCA tightly and thus not all of the product is recoverable in the organic phase of the purification process. However, acid precipitation of the BSA with the addition of 1% HCl allows for the denaturation of BSA and subsequent unbinding of the CBGA and THCA to allow extraction and purification. In one embodiment, the HCl is added directly to the reaction mixture, which is then incubated for about 10 minutes to assure full denaturation of BSA. The mixture is then centrifuged for about 30 minutes at 4000 g. After centrifuging the mixture, the CBGA and THCA coprecipitate into pelleted form. The pellet is then washed with water until the water reaches a neutral pH. The pellet is then resuspended in methanol using vigorous vortexing. The methanol mixture was rotavapped over a water bath at 40° C., and the resulting oil was resuspended in ethanol. The THCA then precipitates as a brown oil. The reaction mixture is then filtered and washed with water and then resuspended in hexane. The hexane was then rotavapped to remove mass added to the product by excess […]. […]"}, "[3]": {"experiment": "nLC-MS/MS of CBGA and dCBGA samples after one hour", "assay_type": "in vitro ADME", "experimental": "(§1) Additional samples were subjected to nano-scale liquid chromatographic tandem mass spectrometry (nLC-MS/MS). Samples were prepared using 2 μL of standard and 198 μL of 50:50 water:acetonitrile in 0.1% formic acid. A 1 μL sample was injected."}, "[4]": {"experiment": "Solubility in nonane overlay versus water", "assay_type": "physicochemical"}, "[5]": {"experiment": "nLC-MS/MS comparison of CBGA and dCBGA after one hour (degradation)", "assay_type": "in vitro ADME", "conditions": "matrix not stated", "experimental": "as §1\nTable 10 compares nLC-MS/MS data for the CBGA samples and dCBGA samples after one hour.\nFIG. 26 illustrates a graph comparing CBGA and dCBGA. Sample 1, Sample 2, and Sample 3 are shown left to right for both CBGA and dCBGA."}, "[6]": {"biological_target": "T1, methionine adenosyltransferase (MAT) from Methanocaldococcusjannaschii (mj) (Methanocaldococcus jannaschii, UniProt Q58605)", "T1 sequence (Q58605 1-406)": "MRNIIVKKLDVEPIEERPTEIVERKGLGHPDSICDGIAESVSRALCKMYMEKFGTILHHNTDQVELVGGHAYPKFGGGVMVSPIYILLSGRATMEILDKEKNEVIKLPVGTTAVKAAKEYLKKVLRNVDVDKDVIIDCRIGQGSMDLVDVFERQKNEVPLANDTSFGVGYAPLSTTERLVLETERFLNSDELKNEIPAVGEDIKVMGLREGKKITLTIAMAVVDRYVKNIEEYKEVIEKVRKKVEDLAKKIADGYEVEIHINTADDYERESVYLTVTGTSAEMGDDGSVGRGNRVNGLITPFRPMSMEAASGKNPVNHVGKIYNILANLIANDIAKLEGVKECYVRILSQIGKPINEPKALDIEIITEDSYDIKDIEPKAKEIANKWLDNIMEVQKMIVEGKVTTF", "conditions": "5 mM met or d3-met, 10 μM MAT, 1 h room temperature"}, "[7]": {"biological_target": "T2, methionine adenosyltransferase (MAT) from Thermococcus kodakarensis (tk) (Thermococcus kodakarensis, UniProt Q5JF22)", "T2 sequence (Q5JF22 1-405)": "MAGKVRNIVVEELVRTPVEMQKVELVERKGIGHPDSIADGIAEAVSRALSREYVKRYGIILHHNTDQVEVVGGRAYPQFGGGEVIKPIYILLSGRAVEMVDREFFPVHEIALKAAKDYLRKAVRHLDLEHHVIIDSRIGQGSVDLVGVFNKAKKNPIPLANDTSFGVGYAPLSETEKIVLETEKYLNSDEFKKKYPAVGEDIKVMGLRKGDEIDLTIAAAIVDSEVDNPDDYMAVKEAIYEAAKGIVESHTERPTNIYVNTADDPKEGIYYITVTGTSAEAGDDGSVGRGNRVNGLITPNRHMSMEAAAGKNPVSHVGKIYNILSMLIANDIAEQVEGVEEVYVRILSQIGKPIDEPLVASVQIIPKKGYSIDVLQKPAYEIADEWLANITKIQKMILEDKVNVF", "conditions": "5 mM met or d3-met, 10 μM MAT, 1 h room temperature"}}}
{"smiles": "C=C(C)[C@@H]1CCC(C)=C[C@H]1c1c(O)cc(CCCCC)cc1O", "note": "[CBD, cannabidiol]", "values": [{"measurement": "metabolites with cleavage of the 5′ pentyl tail", "setting": "[1]", "value": "~25", "unit": "%"}]}
{"smiles": "CCCCCc1cc(O)c(C/C=C(\\C)CCC=C(C)C)c(O)c1C(=O)O", "note": "[CBGA, cannabigerolic acid, reference compound]", "values": [{"measurement": "binding by BSA", "setting": "[2]", "value": "tightly"}, {"measurement": "degradation after one hour, CBGA compared with dCBGA", "setting": "[3]", "value": "CBGA is significantly more degraded after one hour than dCBGA"}, {"measurement": "solubility in water compared with nonane", "setting": "[4]", "value": "more soluble in water than nonane"}]}
{"smiles": "CCCCCc1cc(O)c(C/C=C(\\C)CCC=C(C)C)c(O)c1C(=O)O", "note": "[CBGA, cannabigerolic acid]", "values": [{"measurement": "degradation after one hour compared with dCBGA", "setting": "[5]", "value": "significantly more degraded after one hour than dCBGA"}]}
{"smiles": "CCCc1cc(O)c(C/C=C(\\C)CCC=C(C)C)c(O)c1C(=O)O", "note": "[CBGVA, cannabierovarinic acid]", "values": [{"measurement": "solubility in nonane", "setting": "[4]", "value": "limited solubility"}]}
{"smiles": "CCCCCc1cc2c(c(O)c1C(=O)O)[C@@H]1C=C(C)CC[C@H]1C(C)(C)O2", "note": "[THCA, tetrahydrocannabinolic acid]", "values": [{"measurement": "binding by BSA", "setting": "[2]", "value": "tightly"}]}
{"smiles": "[2H]C([2H])([2H])SCC[C@H](N)C(=O)O", "note": "[d3-met, d3-L-methionine]", "values": [{"measurement": "MAT activity on substrate (Pi released per hour)", "setting": "[6]", "value": "equally active"}, {"measurement": "MAT activity on substrate (Pi released per hour)", "setting": "[7]", "value": "equally active"}]}
{"smiles": "CCCCCc1cc(O)c(C/C=C(\\C)CCC=C(C)C)c(O)c1C(=O)O", "note": "[dCBGA, d11-cannabigerolic acid]", "values": [{"measurement": "degradation after one hour, CBGA compared with dCBGA", "setting": "[3]", "value": "CBGA is significantly more degraded after one hour than dCBGA"}]}
{"smiles": "CSCC[C@H](N)C(=O)O", "note": "[met, methionine, reference compound]", "values": [{"measurement": "MAT activity on substrate (Pi released per hour)", "setting": "[6]", "value": "equally active"}, {"measurement": "MAT activity on substrate (Pi released per hour)", "setting": "[7]", "value": "equally active"}]}
